The values below are quoted from earlier work in patent US20070104771A1, “Transdermal galantamine delivery system” (priority 2005, published 2007).

Turning to `COc1ccc2c3c1OC1CC(O)C=CC31CCN(C)C2` (stereo not shown) [galantamine, 4a, 5,9, 10, 11, 12-Hexahydro-3-methoxy-11-methyl-6H-benzofuro (3a, 3,2-ef) (2) benzazepin-6-ol], the oral bioavailability is 90%.
